These results are taken from patent US5773239A, “Mannosidase inhibitors, process for their preparation and their use as therapeutic agents” (Mount Sinai Hospital Corporation., priority 1995, dated 1998).

One experiment deals with MDAY-D2 tumor cells. Description: L-PHA toxicity assay (inhibition of oligosaccharide processing in cells). Format: cell-based, mouse. Particulars: for IC50: Mus musculus, read-out: IC50 for Inhibition of L-PHA Toxicity; for activity as inhibitors of Golgi oligosaccharide processing in viable MDAY-D2 tumor cells / IC50 for inhibition of Golgi oligosaccharide processing, higher: compared to SW. The procedure: MDAY-D2 tumor cells were inoculated into 96 well micro-test plates at 2×10^4 cells/well, and containing serial dilutions of SW or SW analogues in MEM plus 10% FCS. The cells were cultured for 18-20 hr, followed by the addition of L-PHA at 25 μg/ml for an additional 24 hr. Cell proliferation was measured by adding 0.5 μCi/well of ^3 H-thymidine for 3-4 hr, harvesting onto glass fibre disks using a Titertek harvester and the disks were counted in a liquid scintillation counter. The apparent IC50 values for SW and the analogues are the drug concentrations showing 50% protection from L-PHA toxicity; that is 50% ^3 H-thymidine incorporated compared with cells grown in the absence of L-PHA. In experiments using the esterase inhibitor diethyl p-nitrophenyl phosphate, the compound was added to MDAY-D2 cells 4 hr prior to the α-mannosidase inhibitors and was present through-out the experiment.

Another experiment addresses T1, Jack Bean α-mannosidase (Canavalia ensiformis, UniProt C0HJB3).
T1 construct: purchased Sigma
T1 sequence (C0HJB3 1-981): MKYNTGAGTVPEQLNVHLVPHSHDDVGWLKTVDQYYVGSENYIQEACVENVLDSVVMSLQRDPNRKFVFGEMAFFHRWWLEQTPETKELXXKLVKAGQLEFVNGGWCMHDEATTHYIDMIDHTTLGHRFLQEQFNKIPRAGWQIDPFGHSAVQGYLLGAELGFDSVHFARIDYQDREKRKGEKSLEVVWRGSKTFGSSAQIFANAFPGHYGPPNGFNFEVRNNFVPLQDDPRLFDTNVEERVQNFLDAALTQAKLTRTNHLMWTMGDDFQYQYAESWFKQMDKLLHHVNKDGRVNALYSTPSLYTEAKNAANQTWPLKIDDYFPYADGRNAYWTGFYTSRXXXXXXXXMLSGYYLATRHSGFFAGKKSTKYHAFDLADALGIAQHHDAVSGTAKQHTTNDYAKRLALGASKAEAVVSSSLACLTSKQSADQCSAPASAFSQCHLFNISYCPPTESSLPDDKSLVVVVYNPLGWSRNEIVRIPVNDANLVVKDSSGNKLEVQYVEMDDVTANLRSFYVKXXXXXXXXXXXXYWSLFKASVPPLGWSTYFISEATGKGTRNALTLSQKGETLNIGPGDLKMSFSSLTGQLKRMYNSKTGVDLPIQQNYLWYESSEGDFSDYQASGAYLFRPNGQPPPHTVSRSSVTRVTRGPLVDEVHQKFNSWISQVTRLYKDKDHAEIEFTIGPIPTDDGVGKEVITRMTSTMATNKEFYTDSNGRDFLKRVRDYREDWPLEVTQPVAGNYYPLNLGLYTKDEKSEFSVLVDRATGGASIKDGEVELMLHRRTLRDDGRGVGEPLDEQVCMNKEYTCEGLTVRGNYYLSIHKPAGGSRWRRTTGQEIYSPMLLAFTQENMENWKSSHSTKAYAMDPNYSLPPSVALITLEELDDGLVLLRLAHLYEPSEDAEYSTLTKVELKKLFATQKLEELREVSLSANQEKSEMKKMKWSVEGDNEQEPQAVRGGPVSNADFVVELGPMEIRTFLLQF
Put plainly: Inhibition of Jack Bean α-mannosidase. Format: biochemical. The procedure:
Jack Bean α-mannosidase (Sigma, 38 U/ml) was diluted 1/800, 10 μl was added to each well and the plates were incubated for 20 min at 37° C. The reaction was stopped by the addition of 150 μl of 0.5M sodium carbonate and formation of p-nitrophenol was measured with a plate set at 405 nm.

Another experiment relates to B16F10 melanoma cells. Description: Lung colonization assay. Format: in vivo, C57B1/6J mice. The note with it: for Survivors at day 28: injected i.v.; for survival of mice 28 days after injection of treated tumor cells: versus 2-toluoyloxy-SW treated or untreated B16F10 cells. The procedure: B16F10 melanoma cells were maintained in log-phase growth in MEM plus 10% FCS (Gibco) either untreated or treated for 48 hr with SW or analogues of SW. Cells were harvested with trypsin/EDTA (Gibco), washed and 10^5 melanoma cells in 100 μl of phosphate buffered saline (PBS) were injected into the lateral tail vein of male C57B1/6J mice. The lungs were removed from the mice and tumor nodules were counted at death or on day 28 when the experiment was terminated.
B16F10 melanoma cells were injected into the lateral tail vein of C57B1/6 mice at 10^5 cells/mouse. […] The experiment was terminated on day 28 and lung colonies in the mice were counted.

Another experiment has as its target lysosomal mannosidase. Description: Lysosomal mannosidase assay (pH 5.0). The note with it: para-nitrophenyl α-mannose. Format: biochemical. The method, then:
The assay for rat liver Golgi α-mannosidase II contained 5 mM para-nitrophenylα-mannose, 40 mM sodium acetate pH 5.6, plus serially diluted test compouunds and mannosidase enzyme in a total volume of 50 ul, in 96 well plates. Plates were incubated 45 min at 37° C., then the reaction was stopped with 50 μl of 0.5M sodium carbonate. The absorbance of reaction products was read at 405 nm. The lysosomal mannosidase was done in the same procedure but with 40 mM sodium acetate buffer pH 5.0. The numbers in the table are IC50 values in μM for inhibition of mannosidase activity.

The mark [1] stands for this setting: MDAY-D2 tumor cells, L-PHA 25 μg/ml, 50% protection by 3H-thymidine incorporation.
Where [2] appears, read: p-nitrophenyl α-D-mannopyranoside, pH 5.0, 20 min 37° C., read-out: IC50 for inhibition of J.B. α-mannosidase.
The mark [3] stands for this setting: tumor cells cultured 48 hr with 0.02 ug/ml drug.
Setting [4] is: tumor cells cultured 48 hr with 0.1 ug/ml drug.
[5] abbreviates: tumor cells cultured 48 hr with 1.0 ug/ml drug.

Like-named read-outs stand apart in the source and are kept apart here.

The term IC50 denotes the concentration at which inhibition is half-maximal. As to `CCCCCCCC(=O)OC1CN2CCCC(O)C2C1O` (centres unmarked) [2-octanoyloxy-SW], the IC50 stood at 0.23 µM in the experiment on MDAY-D2 tumor cells (setting [1]) and 123 µM on Jack Bean α-mannosidase (setting [2]). Besides, in the experiment on MDAY-D2 tumor cells, the “activity as inhibitors of Golgi oligosaccharide processing in viable MDAY-D2 tumor cells” value (“activity as inhibitors” below) was “retained full activity”. For the same compound, on Jack Bean α-mannosidase (compared to SW), the “reduction of inhibitor activity / greater IC50 for α-mannosidase in vitro compared to SW” value was 300 fold. Also, the “lung colonies (mean ± range)” value was 9 (5-17) in the experiment on B16F10 melanoma cells (setting [3]), 13 (8-20) in the experiment with B16F10 melanoma cells (setting [4]) and 1 (0-2) with B16F10 melanoma cells (setting [5]). For the same compound, the “Survivors at day 28” value with B16F10 melanoma cells (setting [3]) is listed as 3/5; with B16F10 melanoma cells (setting [4]), 3/5; with B16F10 melanoma cells (setting [5]), 2/5. Further, in the experiment on B16F10 melanoma cells, the “survival of mice 28 days after injection of treated tumor cells” value is reported as “significantly higher”.

With `O[C@H]1[C@H]2[C@H](O)CCCN2C[C@H]1O` [SW, Swainsonine, reference compound], the half-maximal inhibitory concentration (IC50) was 0.2 µM with MDAY-D2 tumor cells (MDAY-D2, 3 h) and 0.082 µM at lysosomal mannosidase. Further, the “lung colonies (mean ± range)” value is reported as 23 (15-31) in the experiment on B16F10 melanoma cells (setting [3]), 5 (2-10) with B16F10 melanoma cells (setting [4]) and 3 (0-4) with B16F10 melanoma cells (setting [5]). The entries for the “Survivors at day 28” value in the experiment with B16F10 melanoma cells (setting [3]), with B16F10 melanoma cells (setting [4]) and with B16F10 melanoma cells (setting [5]) were 2/5, 4/5 and 4/5, respectively. Besides, the “survival of mice 28 days after injection of treated tumor cells” value with B16F10 melanoma cells is “significantly higher”.

As to `O=C(OC1CN2CCCC(O)C2C1O)c1ccccc1` (centres unmarked) [2-benzoyloxy-SW], the “IC50 for inhibition of Golgi oligosaccharide processing, higher” value (from here on “IC50 for inhibition”) in the experiment with MDAY-D2 tumor cells (MDAY-D2 tumor cells) is recorded as “at least 10 times”. Moreover, the IC50 in the experiment with MDAY-D2 tumor cells (setting [1]) worked out at 1.8 µM; on Jack Bean α-mannosidase (setting [2]) it was 350 µM.

For the compound `CCCCCCCCCCCCCC(=O)OC1CCCN2CC(O)C(O)C12` (centres unmarked) [8-myristinoyloxy-SW], the “IC50 for inhibition” value in the experiment on MDAY-D2 tumor cells (MDAY-D2 tumor cells) is listed as “at least 10 times”. The results for the IC50 in the experiment with MDAY-D2 tumor cells (setting [1]) and on Jack Bean α-mannosidase (setting [2]) were over 2.5 µM and over 500 µM, respectively.

In the case of `CCCC(=O)OC1CN2CCCC(O)C2C1O` (centres unmarked) [2-butanoyloxy-SW], the half-maximal inhibitory concentration (IC50) in the experiment with MDAY-D2 tumor cells (setting [1]) came to 0.23 µM; at Jack Bean α-mannosidase, 123 µM. Besides, the “activity as inhibitors” value with MDAY-D2 tumor cells is on record as “retained full activity”. Moreover, the “reduction of inhibitor activity / greater IC50 for α-mannosidase in vitro compared to SW” value at Jack Bean α-mannosidase (compared to SW) is 300 fold.

As for `CCCCCCCCCCCCCCCC(=O)OC1CCCN2CC(O)C(O)C12` (centres unmarked) [8-palmitoyloxy-SW], the “IC50 for inhibition” value with MDAY-D2 tumor cells (MDAY-D2 tumor cells) was “at least 10 times”. Besides, the IC50 in the experiment on MDAY-D2 tumor cells (setting [1]) was over 2.5 µM; at Jack Bean α-mannosidase (setting [2]), 240 µM.

`OC1CN2C[C@@H](O)[C@@H](O)[C@H]2[C@H](O)C1O` (some centres unmarked) [6,7-dihydroxy-SW]: the concentration for half-maximal inhibition (IC50) in the experiment with MDAY-D2 tumor cells (setting [1]) was over 5 µM; at Jack Bean α-mannosidase (setting [2]) it was 50 µM. On Jack Bean α-mannosidase (compared to SW), the “less active than SW in the Jack Bean α-mannosidase assay” value came to 100 times.

For `Cc1ccc(C(=O)O[C@@H]2CN3CCC[C@@H](O)[C@@H]3[C@@H]2O)cc1` [2-toluoyloxy-SW], the “IC50 for inhibition” value with MDAY-D2 tumor cells (MDAY-D2 tumor cells) is listed as “at least 10 times”. The IC50 with MDAY-D2 tumor cells (setting [1]) turned out to be 3.4 µM; at Jack Bean α-mannosidase (setting [2]), 350 µM. The “lung colonies (mean ± range)” value in the experiment on B16F10 melanoma cells (setting [4]) and in the experiment on B16F10 melanoma cells (setting [5]) was over 100 each time. In addition, the “Survivors at day 28” value in the experiment with B16F10 melanoma cells (setting [4]) and in the experiment on B16F10 melanoma cells (setting [5]) was 0/5 throughout.

Turning to `O=C(OC1CN2CCCC(O)C2C1O)c1ccc([N+](=O)[O-])cc1` (centres unmarked) [2-p-nitrobenzoyloxy-SW], the half-inhibitory concentration (IC50) in the experiment with MDAY-D2 tumor cells (setting [1]) amounted to 0.23 µM; on Jack Bean α-mannosidase (setting [2]), 123 µM. In addition, the “activity as inhibitors” value in the experiment on MDAY-D2 tumor cells is “retained full activity”. Moreover, on Jack Bean α-mannosidase (compared to SW), the “reduction of inhibitor activity / greater IC50 for α-mannosidase in vitro compared to SW” value amounted to 300 fold.
